# Assay results: US10669261B2, “Heteroarylhydroxypyrimidinones as agonists of the APJ receptor” (BRISTOL-MYERS SQUIBB COMPANY, priority 2015, dated 2020)
# Biological target: T1, human APJ receptor (Homo sapiens, UniProt P35414)
# T1 construct: expressed in transfected cells
# T1 sequence (P35414 1-380): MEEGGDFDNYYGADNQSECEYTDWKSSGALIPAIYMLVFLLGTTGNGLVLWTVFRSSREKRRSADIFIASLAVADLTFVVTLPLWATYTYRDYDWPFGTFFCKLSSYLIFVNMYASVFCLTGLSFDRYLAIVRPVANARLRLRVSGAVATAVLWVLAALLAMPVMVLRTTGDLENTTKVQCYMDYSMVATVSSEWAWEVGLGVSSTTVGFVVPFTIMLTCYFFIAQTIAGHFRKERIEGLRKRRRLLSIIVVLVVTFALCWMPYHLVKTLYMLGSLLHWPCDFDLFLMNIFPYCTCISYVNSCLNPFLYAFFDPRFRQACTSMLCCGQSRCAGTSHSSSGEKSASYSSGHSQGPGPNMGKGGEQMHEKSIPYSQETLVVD
# Test: Intracellular cAMP accumulation assay (APJ hcAMP, HTRF)
# Format: cell-based
# Settings: HEK293 cells stably expressing human APJ receptor; inhibition of forskolin-mediated cAMP production; stated at end of example; read-out: Human APJ cAMP Potency Range
# Description: Intracellular cAMP Accumulation Assay
# HEK293 cells stably expressing human APJ receptor were used to assess the activity of compounds. Cultured cells were detached and resuspended in the cAMP Homogeneous Time-Resolved Fluorescence (HTRF) assay buffer (Cisbio cat; #62AM4PEJ). The assay was performed in 384-well assay plates (Perkin-Elmer; cat #6008289) according to assay protocol provided by the manufacturer. Serial dilutions of a compound together with assay buffer containing […] IBMX and 2 μM forskolin were added to each well containing 5,000 cells and incubated for 30 minutes at room temperature. Subsequently, cAMP D2 reagent was added in the lysis buffer followed by the EuK antibody (Cisbio; cat #62AM4PEJ) and incubated for 60 min. The fluorescence emission ratio was measured using fluorometer. The intracellular cAMP concentrations (compound-stimulated inhibition of forskolin-mediated cAMP production) were calculated by extrapolation from a standard curve using known cAMP concentrations. The EC50 values were obtained by fitting the data to a sigmoidal concentration-response curve with variable slope. The maximal achievable inhibition of forskolin-induced cAMP levels (Ymax) for each compound was expressed as relative percentage of inhibition attained using pyroglutamated apelin-13 ((Pyr1)apelin-13) peptide, which was set to 100%.
# The examples disclosed below were tested in the APJ in vitro assays described above and were found having human APJ cyclic AMP (hcAMP) activity. The EC50 value of each compound is presented at the end of the example description.
# The biological activity of the exemplified compounds of this invention determined by the assay described above is shown at the end of each example.
row,EC50 [nM],SMILES
1,0.01 to 10,"CCCCc1nc(O)c(-c2nnc(Cc3noc4ccccc34)o2)c(=O)n1[C@@H](CC)c1ccccc1 [Example 74, (S)-5-(5-(Benzo[d]isoxazol-3-ylmethyl)-1,3,4-oxadiazol-2-yl)-2-butyl-6-hydroxy-3-(1-phenylpropyl)pyrimidin-4(3H)-one]"
2,0.01 to 10,"COc1cccc(OC)c1-n1c(CCC2CC2)nc(=O)c(-c2nnc(CN(C)C(=O)c3ccccn3)o2)c1O [Example 53, N-((5-(2-(2-cyclopropylethyl)-1-(2,6-dimethoxyphenyl)-6-hydroxy-4-oxo-1,4-dihydropyrimidin-5-yl)-1,3,4-oxadiazol-2-yl)methyl)-N-methylpicolinamide]"
3,0.01 to 10,"COc1cccc(OC)c1-n1c(CCC2CC2)nc(=O)c(-c2nnc(Cc3noc4ccccc34)o2)c1O [Example 42, 5-(5-(benzo[d]isoxazol-3-ylmethyl)-1,3,4-oxadiazol-2-yl)-2-(2-cyclopropylethyl)-1-(2,6-dimethoxyphenyl)-6-hydroxypyrimidin-4(1H)-one]"
4,0.01 to 10,"CCN(CC)C(=O)Cc1nnc(-c2c(O)n(-c3c(OC)cccc3OC)c(CCC3CC3)nc2=O)o1 [Example 52, 2-(5-(2-(2-Cyclopropylethyl)-1-(2,6-dimethoxyphenyl)-6-hydroxy-4-oxo-1,4-dihydropyrimidin-5-yl)-1,3,4-oxadiazol-2-yl)-N,N-diethylacetamide]"

# Same assay, conditions: Table 1; HEK293 cells stably expressing human APJ receptor; read-out: hAPJ cAMP EC50 Potency range
row,SMILES,EC50 [nM]
1,"COc1cccc(OC)c1-n1c(COC(C)C)nc(=O)c(-c2nnc(Cc3ccc(Cl)cc3F)o2)c1O [Example 60, 5-{5-[(4-chloro-2-fluorophenyl)methyl]-1,3,4-oxadiazol-2-yl}-1-(2,6-dimethoxyphenyl)-6-hydroxy-2-[(propan-2-yloxy)methyl]-1,4-dihydropyrimidin-4-one]",0.01 to 10
2,"CCCCc1nc(=O)c(-c2nnc(Cc3csc(C)n3)o2)c(O)n1-c1c(OCC)cccc1OCC [Example 25, 2-butyl-1-(2,6-diethoxyphenyl)-6-hydroxy-5-{5-[(2-methyl-1,3-thiazol-4-yl)methyl]-1,3,4-oxadiazol-2-yl}-1,4-dihydropyrimidin-4-one]",0.01 to 10
3,"COc1cccc(OC)c1-n1c(CC2CC2)nc(=O)c(-c2nnc(Cc3nc(-c4ccccn4)no3)o2)c1O [Example 22, 2-(cyclopropylmethyl)-1-(2,6-dimethoxyphenyl)-6-hydroxy-5-(5-{[3-(pyridin-2-yl)-1,2,4-oxadiazol-5-yl]methyl}-1,3,4-oxadiazol-2-yl)-1,4-dihydropyrimidin-4-one]",0.01 to 10
4,"COc1cccc(OC)c1-n1c(CCC(C)C)nc(=O)c(-c2nnc(CN3CCCC3=O)o2)c1O [Example 7, 1-(2,6-dimethoxyphenyl)-6-hydroxy-2-(3-methylbutyl)-5-{5-[(2-oxopyrrolidin-1-yl)methyl]-1,3,4-oxadiazol-2-yl}-1,4-dihydropyrimidin-4-one]",0.01 to 10
5,"CCCCc1nc(=O)c(-c2nnc(Cc3csc(C)n3)o2)c(O)n1-c1c(OC)cccc1OC [Example 5, 2-butyl-1-(2,6-dimethoxyphenyl)-6-hydroxy-5-{5-[(2-methyl-1,3-thiazol-4-yl)methyl]-1,3,4-oxadiazol-2-yl}-1,4-dihydropyrimidin-4-one]",0.01 to 10
6,"COc1cccc(OC)c1-n1c(CCC2CC2)nc(=O)c(-c2nnc(Cc3ccc(Cl)cc3)o2)c1O [Example 45, 5-{5-[(4-chlorophenyl)methyl]-1,3,4-oxadiazol-2-yl}-2-(2-cyclopropylethyl)-1-(2,6-dimethoxyphenyl)-6-hydroxy-1,4-dihydropyrimidin-4-one]",0.01 to 10

# Results, then the compound that gave them:
row,EC50 [nM],SMILES
1,0.01 to 10,"COc1cccc(OC)c1-n1c(CCC2CC2)nc(=O)c(-c2nnc(CN3CCCC3=O)o2)c1O [Example 43, 2-(2-cyclopropylethyl)-1-(2,6-dimethoxyphenyl)-6-hydroxy-5-{5-[(2-oxopyrrolidin-1-yl)methyl]-1,3,4-oxadiazol-2-yl}-1,4-dihydropyrimidin-4-one]"
2,0.01 to 10,"COc1cccc(OC)c1-n1c(CC2CC2)nc(=O)c(-c2nnc(Cc3noc4ccccc34)o2)c1O [Example 20, 5-[5-(1,2-benzoxazol-3-ylmethyl)-1,3,4-oxadiazol-2-yl]-2-(cyclopropylmethyl)-1-(2,6-dimethoxyphenyl)-6-hydroxy-1,4-dihydropyrimidin-4-one]"
3,0.01 to 10,"CCCCc1nc(=O)c(-c2nnc(Cc3noc4ccccc34)o2)c(O)n1-c1c(C)cccc1OC [Example 13, 5-[5-(1,2-benzoxazol-3-ylmethyl)-1,3,4-oxadiazol-2-yl]-2-butyl-6-hydroxy-1-(2-methoxy-6-methylphenyl)-1,4-dihydropyrimidin-4-one]"
4,0.01 to 10,"[2H]C([2H])([2H])Oc1cccc(OC([2H])([2H])[2H])c1-n1c(COCC)nc(=O)c(-c2nnc(Cc3noc4ccccc34)o2)c1O [Example 50, 5-[5-(1,2-benzoxazol-3-ylmethyl)-1,3,4-oxadiazol-2-yl]-1-[2,6-bis(^2H3)methoxyphenyl]-2-(ethoxymethyl)-6-hydroxy-1,4-dihydropyrimidin-4-one]"
5,0.01 to 10,"COc1cccc(OC)c1-n1c(C2CCCC2)nc(=O)c(-c2nnc(Cn3ccccc3=O)o2)c1O [Example 62, 2-cyclopentyl-1-(2,6-dimethoxyphenyl)-6-hydroxy-5-{5-[(2-oxo-1,2-dihydropyridin-1-yl)methyl]-1,3,4-oxadiazol-2-yl}-1,4-dihydropyrimidin-4-one]"

# Same assay, conditions: Table 2; HEK293 cells stably expressing human APJ receptor; read-out: hAPJ cAMP EC50 Potency range
row,SMILES,EC50 [nM]
1,"CCCCc1nc(O)c(-c2nnc(Cc3ccc(Cl)cn3)o2)c(=O)n1[C@@H](CC)c1ccccc1 [Example 118, 2-butyl-5-{5-[(5-chloropyridin-2-yl)methyl]-1,3,4-oxadiazol-2-yl}-6-hydroxy-3-[(1S)-1-phenylpropyl]-3,4-dihydropyrimidin-4-one]",0.01 to 10
2,"CCCCc1nc(O)c(-c2nnc(Cc3csc(C)n3)o2)c(=O)n1[C@H](COC)c1ccccc1 [Example 93, 2-butyl-6-hydroxy-3-[(1S)-2-methoxy-1-phenylethyl]-5-{5-[(2-methyl-1,3-thiazol-4-yl)methyl]-1,3,4-oxadiazol-2-yl}-3,4-dihydropyrimidin-4-one]",100 to 300
3,"CCCCc1nc(O)c(-c2nnc(Cc3ccc(Cl)cn3)o2)c(=O)n1[C@@H](C)c1cccc(C#N)c1 [Example 108, 3-[(1S)-1-(2-butyl-5-{5-[(5-chloropyridin-2-yl)methyl]-1,3,4-oxadiazol-2-yl}-4-hydroxy-6-oxo-1,6-dihydropyrimidin-1-yl)ethyl]benzonitrile]",0.01 to 10
4,"CCCCc1nc(O)c(-c2nnc(Cc3csc(C)n3)o2)c(=O)n1[C@@H](C)c1cccc(C#N)c1 [Example 104, 3-[(1S)-1-(2-butyl-4-hydroxy-5-{5-[(2-methyl-1,3-thiazol-4-yl)methyl]-1,3,4-oxadiazol-2-yl}-6-oxo-1,6-dihydropyrimidin-1-yl)ethyl]benzonitrile]",10 to 100
5,"CCCCc1nc(O)c(-c2nnc(Cc3ccc(Cl)cn3)o2)c(=O)n1[C@H](C)c1ccccc1 [Example 120, 2-butyl-5-{5-[(5-chloropyridin-2-yl)methyl]-1,3,4-oxadiazol-2-yl}-6-hydroxy-3-[(1R)-1-phenylethyl]-3,4-dihydropyrimidin-4-one]",0.01 to 10
6,"CCCCc1nc(O)c(-c2nnc(Cc3noc4ccccc34)o2)c(=O)n1[C@H](CC)c1ccccc1 [Example 87, 5-{5-[(1,2-benzoxazol-3-yl)methyl]-1,3,4-oxadiazol-2-yl}-2-butyl-6-hydroxy-3-[(1R)-1-phenylpropyl]-3,4-dihydropyrimidin-4-one]",0.01 to 10

# Now from value to compound:
row,EC50 [nM],SMILES
1,0.01 to 10,"CCCCc1nc(O)c(-c2nnc(Cc3csc(C)n3)o2)c(=O)n1[C@@H](CC)c1ccccc1 [Example 85, 2-butyl-6-hydroxy-5-{5-[(2-methyl-1,3-thiazol-4-yl)methyl]-1,3,4-oxadiazol-2-yl}-3-[(1S)-1-phenylpropyl]-3,4-dihydropyrimidin-4-one]"
2,100 to 300,"CCCCc1nc(O)c(-c2nnc(Cc3noc4ccccc34)o2)c(=O)n1[C@H](COC)c1ccccc1 [Example 90, 5-{5-[(1,2-benzoxazol-3-yl)methyl]-1,3,4-oxadiazol-2-yl}-2-butyl-6-hydroxy-3-[(1S)-2-methoxy-1-phenylethyl]-3,4-dihydropyrimidin-4-one]"
3,0.01 to 10,"CCCCc1nc(O)c(-c2nnc(Cc3csc(C)n3)o2)c(=O)n1[C@@H](C)c1ccccc1 [Example 76, 2-butyl-6-hydroxy-5-{5-[(2-methyl-1,3-thiazol-4-yl)methyl]-1,3,4-oxadiazol-2-yl}-3-[(1S)-1-phenylethyl]-3,4-dihydropyrimidin-4-one]"
